Legend:
[1] = biological target: T1, p50 (Homo sapiens, UniProt P19838); test: DSE-FRET p50–DNA binding inhibition; type: biochemical
T1 sequence (P19838 1-433 limits assumed): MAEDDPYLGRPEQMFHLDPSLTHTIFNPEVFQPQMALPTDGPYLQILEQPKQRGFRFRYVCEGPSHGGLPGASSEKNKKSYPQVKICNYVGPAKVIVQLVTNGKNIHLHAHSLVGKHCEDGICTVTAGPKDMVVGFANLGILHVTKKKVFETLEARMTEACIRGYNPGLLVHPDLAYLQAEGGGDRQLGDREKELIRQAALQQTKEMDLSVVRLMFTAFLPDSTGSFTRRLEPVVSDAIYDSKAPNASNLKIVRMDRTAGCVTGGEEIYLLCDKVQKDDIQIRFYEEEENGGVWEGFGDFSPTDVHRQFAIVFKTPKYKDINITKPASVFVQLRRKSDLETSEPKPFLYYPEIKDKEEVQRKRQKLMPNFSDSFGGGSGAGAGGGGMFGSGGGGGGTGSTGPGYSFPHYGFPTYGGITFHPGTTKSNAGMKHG

[2] = test system: PK8 cells; test: Cell viability assay (PrestoBlue), TNF-α-treated PK8 cells; type: cell-based, human; conditions: TNF-α 50 ng/mL, 48 h
Protocol: The human pancreatic carcinoma cell line PK8 was grown in Roswell Park Memorial Institute 1640 Medium (RPMI) (SIGMA; R8758) supplemented with 10% fetal bovine serum (FBS) at 37 °C with 5% CO2.
Cell viability was measured using the PrestoBlue assay according to the standard protocol (Thermo Fisher Scientific, Waltham, MA, USA: A13261). PK8 cells were cultivated on 96-well plates. After a 48 h treatment with TNF-α (50 ng/mL) in the presence or absence of A55, the culture medium was replaced with fresh medium containing 10% PrestoBlue and incubated for an additional 1 h at 37 °C and 5% CO2. Fluorescence intensity was then measured using a multiplate reader (EnSpire, PerkinElmer, Waltham, MA, USA).

[3] = biological target: RelA (Homo sapiens, UniProt Q04206); test: DSE-FRET RelA–DNA binding inhibition; type: biochemical
Sequence of RelA (Q04206 19-306 limits assumed): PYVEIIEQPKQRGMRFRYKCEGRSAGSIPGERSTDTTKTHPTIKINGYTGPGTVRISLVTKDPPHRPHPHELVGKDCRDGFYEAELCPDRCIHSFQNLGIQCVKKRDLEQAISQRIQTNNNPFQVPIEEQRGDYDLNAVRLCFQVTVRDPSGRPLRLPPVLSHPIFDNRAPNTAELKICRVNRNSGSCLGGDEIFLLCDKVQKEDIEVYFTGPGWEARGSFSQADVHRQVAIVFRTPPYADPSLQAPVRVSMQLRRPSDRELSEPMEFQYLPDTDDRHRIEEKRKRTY

[4] = biological target: T2, GST–p52 (Homo sapiens, UniProt Q00653); test: SPR analysis with immobilized GST–p52; type: binding
T2 sequence (Q00653 1-454 limits assumed): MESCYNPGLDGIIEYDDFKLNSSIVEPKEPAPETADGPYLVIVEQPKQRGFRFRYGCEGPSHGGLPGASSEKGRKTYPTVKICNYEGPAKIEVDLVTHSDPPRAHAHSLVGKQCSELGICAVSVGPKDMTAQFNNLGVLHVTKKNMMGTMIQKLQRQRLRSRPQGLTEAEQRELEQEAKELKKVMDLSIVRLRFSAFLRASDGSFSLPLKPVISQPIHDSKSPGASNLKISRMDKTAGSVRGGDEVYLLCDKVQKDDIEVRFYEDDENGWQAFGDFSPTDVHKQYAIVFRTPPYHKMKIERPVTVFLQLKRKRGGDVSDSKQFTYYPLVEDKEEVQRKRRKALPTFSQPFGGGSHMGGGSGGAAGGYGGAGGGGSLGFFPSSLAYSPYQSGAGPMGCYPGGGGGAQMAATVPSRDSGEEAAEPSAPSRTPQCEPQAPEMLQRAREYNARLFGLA
Protocol: SPR biosensor measurements were performed at 25 °C using a Biacore T100 instrument (GE Healthcare, Chicago, IL, USA). […] Next, 4 µg/mL GST–RelA or 5 µg/mL GST (GE Healthcare) was flowed through the channel (5 μL/min, for 180 s) and captured on the sensor chip. […] Dissociation constants were computed by fitting to a 1:1 interaction model using Biacore (GE Healthcare). Stoichiometry was calculated based on the theoretical Rmax value, where the theoretical Rmax = MWA/MWL RL SM (A, analyte; L, ligand; RL, immobilization level of ligand RU; SM, stoichiometry).

[5] = biological target: T3, p52 (Homo sapiens, UniProt Q00653); test: DSE-FRET p52–DNA binding inhibition; type: biochemical
T3 sequence (Q00653 1-454 limits assumed): T2 sequence (Q00653 1-454 limits assumed)

[6] = test system: T4, NF-κB–DNA complexes in PK8 nuclear extract; test: EMSA with nuclear extracts from TNF-α-treated PK8 cells; type: biochemical, human; conditions: TNF-α 50 ng/mL 10 min
T4 construct: nuclear extracts from tumor necrosis factor (TNF)-α-treated PK8 cells; endogenous in cells; host or cells: PK8 (human pancreatic carcinoma), TNF-α 50 ng/mL for 10 min, nuclear extract
Protocol: (§1) For EMSA using nuclear extract, PK8 cells were treated with TNF-α (50 ng/mL) for 10 min before nuclear protein extraction. The cells were washed with ice-cold phosphate-buffered saline (PBS), followed by buffer A (10 mM HEPES–NaOH, pH 7.9, 10 mM KCl, 1.5 mM MgCl2, 0.5 mM DTT, and 0.5 mM phenylmethanesulfonyl fluoride (PMSF)). After 15 min on ice, the cell suspension was centrifuged at 4 °C for 3 min at 2000 rpm, and the resultant cell pellets were resuspended in buffer A. Cells were homogenized using Dounse homogenizer type A (tight, 50 stroke) on ice. Homogenates were centrifuged at 4 °C for 10 min at 5000 rpm, and the resultant nuclear protein pellets were resuspended in buffer C (20 mM HEPES–NaOH pH 7.9, 600 mM KCl, 1.5 mM MgCl2, 25% glycerol, 0.2 mM EDTA, 0.5 mM DTT, and 0.5 mM PMSF). The nuclear proteins were incubated for 1 h on ice with intermittent tapping followed by 15 min of centrifugation at 18,000 rpm (4 °C). The supernatants were dialyzed using a Slide-A-Layzer Dialysis cassette 3500MW (Thermo: 66110) with buffer D (20 mM HEPES–NaOH pH 7.9, 100 mM KCl, 20% glycerol, 0.2 mM EDTA, 0.5 mM DTT, and 0.5 mM PMSF). The dialysis products were then aliquoted, snap-frozen, and stored at −80 °C.

[7] = test system: NF-κB–DNA complexes in PK8 nuclear extract; test: as above; type: biochemical, human; conditions: 500 µM A55
Protocol: as §1

IC50 [1]: > 100 µM
Hit Judgement of: RelA ([3]; 2nd screening at 96 well plate, 1 = judged hit): 1
ligand efficiency (LE) ([3]; 16 heavy atoms): 0.44
RelA–DNA binding inhibition ([3]; 96-well plate, in silico selected compounds): over 50%
RelA–DNA binding inhibition at 50 µM ([3]; 96-well plates, 50 µM): inhibited only RelA–DNA binding
inhibition at 50 µM ([3]; 96 well plate, 50 µM, 120 min-0 min, read-out: Kinetic assay @ 50 µM RelA Inhibition % ΔRFU(120 min-0 min)): 63%
IC50 ([3]; DSE-FRET): 9.31 µM
Kd [4]: 1.27 µM
Rmax ([4]; GST–p52, 3.125–100 µM A55): 11.4 RU
Rmax GST-p52 ([4]; Run 1, 100 uM - […], theoretical Rmax 3.4): 11.4 RU
p52–DNA binding inhibition at 50 µM ([5]; 96-well plates, 50 µM): inhibited only RelA–DNA binding
inhibition at 50 µM ([5]; 96 well plate, 50 µM, 120 min-0 min, read-out: Kinetic assay @ 50 µM p52 Inhibition % ΔRFU(120 min-0 min)): 6.66%
IC50 ([5]; DSE-FRET): > 100 µM
Compound: Cc1cc(O)n(CC(=O)O)c(=O)c1C(N)=O [A55, 2-(3-carbamoyl-6-hydroxy-4-methyl-2-oxopyridin-1(2H)-yl) acetic acid]
cell proliferation / growth inhibition [2]: enhanced the growth inhibition of TNF-α-treated PK8 cells in a dose-dependent manner
dose–response of RelA–DNA binding inhibition ([3]; 2–10 µM): inhibited RelA–DNA binding in a concentration-dependent manner
EMSA band shift, RelA–DNA complex (upper band) [6]: Only the upper band disappeared
EMSA band shift, other protein–DNA complexes (lower band) [7]: did not affect the lower band

Reference: PMC7734590, “Identification of a Selective RelA Inhibitor Based on DSE-FRET Screening Methods” (International Journal of Molecular Sciences, 2020)
